Two compounds from US7348330B2, “1-azabicyclo [2,2,2] octan-3-one derivatives” (Aprea AB, priority 2000, dated 2008) can be followed below.

One series concerns Saos-2 cells lacking p53. Put plainly: Colony formation assay. Format: cell-based, human. The conditions noted are these: 5 µM of compound; colonies after 14 days. An excerpt:
Colonies were stained with Giemsa and counted 14 days after seeding.
The cells were Giemsa stained and scored for the appearance of colonies after 14 days.

Series [1] concerns the target T1, GST-His-175 mutant p53 protein (Homo sapiens, UniProt P04637, R175H).
T1 construct: made in house
Put plainly: Band shift assay. Format: biochemical. The method, then: FIG. 7A Lane 1-3, GST-His-175 mutant p53 is unable to bind DNA. […] PAb421 antibody was added to all reaction mixtures. […] Monoclonal antibody PAb421 was added to the reaction mixtures in lanes 2-8; PAb1801 was, added to the reaction mixtures in lanes 9-15.
(§1) The GST-p53 proteins were prepared as described (Selivanova et al., 1997). Band shift assays were performed in binding buffer containing 100 mM HEPES pH 7.5, 50 mM KCl , 1 mg/ml BSA, 0.1% Triton X-100, 2 mM MgCl2 and 1 mM DTT essentially as in (Selivanova et al., 1996).
Substitution of arginin at position 175 causes a gross unfolding of the DNA binding core domain of p53.

Series [2] addresses T2, Phe-176 mutant p53 protein (Homo sapiens, UniProt P04637, C176F).
T2 construct: as a source for endogenous p53 protein; endogenous in cells; host or cells: KRC/Y renal carcinoma cells (cell extract)
The series is described as follows: Band shift assay, KRC/Y cells. Format: biochemical. The procedure:
as §1

Series [3] is described as follows: Toxicity assessment in SCID mice. Format: in vivo. The method, then: All animal studies were approved by the local animal ethical committee and animal care was in accordance with institutional guidelines. For toxicity assessment, 12 SCID mice (average weight 25 g) were divided in 4 groups. […] Control animals were injected with PBS. We measured weights of the mice for 1 month after the last injection. […] After 3 days the mice were divided into 4 groups. […] Injections were performed twice daily for 3 days. Tumor volume was measured during 2 months.
In the untreated control group, the average tumor volume after 59 days was 555.7±284 mm^3 (means±SE, n=3).

Structures are written as SMILES.

In the case of `CCC(=O)OCN1C(=O)C=CC1=O` [MIRA-1], the “inhibition of colony formation” value in the series on Saos-2 cells lacking p53 was 48%. Besides, the “restoration of specific DNA binding” value was “able to restore” in series [1] and “not capable of restoring” in series [2].

Turning to `O=C1C2CCN(CC2)C1(CO)CO` [PRIMA-1, 2,2-bis(hydroxymethyl)-1-azabicyclo[2,2,2]octan-3-one], in series [3] (100 mg/kg i.v., after one month of observation, means±SE), the “average weight of mice” value was 20 ± 0.2 g. Further, the “changes in behavior or weight” value in series [3] (intravenous injections, 1, 10 and 100 mg/kg daily for 5 days) is “did not cause any obvious changes in behavior or weight”.
